Results reported in patent publication US10981958B2, “Peptide modulator of purinergic receptors” (priority 2016, dated 2021).
Where no end group is shown, it is not given here.

Assays:
[1] = biological target: T1, P2X2/3 receptors (Rattus norvegicus, UniProt P49653+P49654); conditions: agonist sensitivity, dorsal root ganglia neurons; read-out: sensitivity of P2X2/3 receptor to agonist (Kd); cited from earlier work
T1 construct: In the membranes of dorsal root ganglia, along with P2X3 receptors, P2X2 and P2X2/3 receptors are also found; endogenous in cells; host or cells: acutely isolated dorsal root ganglion neurons of 9-12-day Wistar rats
T1 sequence (P49653 1-472): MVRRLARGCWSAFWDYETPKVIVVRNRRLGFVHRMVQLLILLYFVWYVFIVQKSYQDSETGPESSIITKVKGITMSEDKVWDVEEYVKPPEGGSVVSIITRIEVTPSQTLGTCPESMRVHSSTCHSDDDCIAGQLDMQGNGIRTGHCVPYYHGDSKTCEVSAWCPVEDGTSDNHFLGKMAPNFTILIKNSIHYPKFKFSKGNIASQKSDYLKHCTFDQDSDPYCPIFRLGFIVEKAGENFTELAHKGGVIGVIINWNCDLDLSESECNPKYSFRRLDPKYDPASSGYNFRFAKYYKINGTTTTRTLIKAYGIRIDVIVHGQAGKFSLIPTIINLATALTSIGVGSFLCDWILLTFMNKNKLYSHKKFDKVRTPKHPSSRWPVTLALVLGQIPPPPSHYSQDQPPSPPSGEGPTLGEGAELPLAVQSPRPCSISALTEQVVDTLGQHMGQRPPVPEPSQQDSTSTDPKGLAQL
T1 sequence (P49654 1-397): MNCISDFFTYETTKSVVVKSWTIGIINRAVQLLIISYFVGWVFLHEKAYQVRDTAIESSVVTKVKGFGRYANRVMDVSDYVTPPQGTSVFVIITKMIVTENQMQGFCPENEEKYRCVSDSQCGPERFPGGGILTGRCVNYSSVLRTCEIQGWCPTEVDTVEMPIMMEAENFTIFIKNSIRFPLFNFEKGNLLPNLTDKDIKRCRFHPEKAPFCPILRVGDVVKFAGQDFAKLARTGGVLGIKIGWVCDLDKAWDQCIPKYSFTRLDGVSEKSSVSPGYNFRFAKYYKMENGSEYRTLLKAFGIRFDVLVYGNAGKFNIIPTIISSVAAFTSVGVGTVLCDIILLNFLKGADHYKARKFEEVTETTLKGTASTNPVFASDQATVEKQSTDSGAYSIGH

[2] = biological target: T2, P2X2 receptors (Rattus norvegicus, UniProt P49653); test: Whole-cell patch clamp of P2X2-mediated currents in rat dorsal root ganglia neurons; format: cell-based; conditions: PT6 50 nM (FIG. 2)
T2 construct: In the membranes of dorsal root ganglia, along with P2X3 receptors, P2X2 and P2X2/3 receptors are also found; endogenous in cells; host or cells: acutely isolated dorsal root ganglion neurons of 9-12-day Wistar rats
T2 sequence (P49653 1-472): T1 sequence (P49653 1-472)
Protocol: (§1) In the membranes of dorsal root ganglia, along with P2X3 receptors, P2X2 and P2X2/3 receptors are also found [Burgard E. C. et al. P2X receptor-mediated ionic currents in dorsal root ganglion neurons//J. Neurophysiol., 1999, V. 82, P. 1590-1598]. The time for exit of P2X3 receptors from desensitization is very large compared to P2X2 and P2X2/3 receptors. With the agonist application for 1 min, all observed responses, except for the first, are mediated by P2X2 and P2X2/3 receptors. The sensitivity of P2X2/3 receptor to ATP and α,β-methylene-ATP is similar (Kd ˜30 μM), and the minimal concentration of α,β-methylene-ATP necessary for activation of P2X2 receptors is at least 100 μM. The equivalence of ionic currents observed in response to consecutive application of ATP and α,β-methylene-ATP indicates a significant predominance of P2X2/3 receptors on the cell membrane. In cells, which generate ionic currents of various amplitude, i.e. greater in response to ATP application, and very low in response to application of α,β-methylene-ATP, the membrane contains mainly P2X2 receptors. […] Therefore, it has been established suddenly that peptide PT6 acts selectively on the receptors of P2X3 isoform and is a selective antagonist of purinergic P2X3 receptors.

[3] = biological target: T1, P2X2/3 receptors; test: Whole-cell patch clamp of P2X2/3-mediated currents in rat dorsal root ganglia neurons; format: cell-based; conditions: PT6 50 nM (FIG. 2)
Protocol: as §1

[4] = biological target: P2X3 receptors (Rattus norvegicus, UniProt P49654); conditions: PT6 50 nM; rat sensory (dorsal root ganglia) neurons; agonist CTP 100 μM; holding potential −60 mV
Protocol: Neurons for the experiments are isolated from dorsal root ganglia of 9-12-day Wistar rats. The ganglia are placed to a Petri dish filled with the extracellular solution (130 mM NaCl, 5 mM KCl, 2 mM CaCl2, 2 mM MgCl2, 20 mM HEPES, pH 7.4) at room temperature, and then transferred to the enzyme solution (1 mg of trypsin and 2 mg of collagenase in 2 ml of the extracellular solution) heated up to 35° C., and incubated for 10 min. Then the ganglia are rinsed thoroughly with a pure (without enzymes) extracellular solution in another Petri dish. Single cells are isolated from the rinsed ganglia using fine needles. A dish with single cells is transferred to the electrophysiological unit. The experiments begin after all cells are settled to the dish bottom in 30 min after isolation.
Electrophysiological tests are performed using the whole-cell configuration of the classic method of patch clamp and the approach of a rapid application of a substance (agonist), which binds to P2X3 receptors and induces ion channel opening. The electrophysiological setup consists of three parts: microscope; sample application system (“jumping table”; Pharma Robot, Ukraine); and recording system of the current flowing through channels in the cell plasma membrane. […] Currents are recorded at the holding potential of −60 mV and room temperature with a Model 2400 Patch Clamp Amplifier (A-M Systems, USA). […]

[5] = biological target: T2, P2X2 receptors; conditions: agonist activation; cited from earlier work

Compound | Kd [1] | effect on ionic currents mediated by P2X2 receptors [2] | effect on ionic currents mediated by P2X2/3 receptors [3] | decrease of the current amplitude mediated by P2X3 receptors (inhibition of currents) [4] | minimal concentration necessary for activation of P2X2 receptors [5]
Nc1ncnc2c1ncn2[C@@H]1O[C@H](COP(=O)(O)OP(=O)(O)OP(=O)(O)O)[C@@H](O)[C@H]1O [ATP, adenosine triphosphate] | ~30 µM |  |  |  | 
GYCATKGIKCNDIHCCSGLKCDSKRKVCVKG (cysteine pairing not given here) [PT6] |  | does not affect | does not affect | 80% | 
Nc1ncnc2c1ncn2[C@@H]1O[C@H](COP(=O)(O)CP(=O)(O)OP(=O)(O)O)[C@@H](O)[C@H]1O [α,β-methylene-ATP] | ~30 µM |  |  |  | at least 100 μM
